“And” between values parts separate entries of the source, which are not always exact repeats. Equal values may be shown once. After the bases stand the sugars from the 5' end (letter, count) and the backbone: PS all phosphorothioate, else s phosphorothioate and o phosphodiester by linkage. Methylation of C is not given here. k = constrained ethyl (cEt); d = 2'-deoxy (DNA)
Molecular target: MALAT1
Conditions: ASO, A431, 0.005 µM

Sequence | target mRNA inhibition
CTACCATATCCAAACA (sugars k3 d10 k3, PS) | 21%
CTACCTTCATCACCAA (sugars k3 d10 k3, PS) | 2%
CTACTATTTCTCCAGG (sugars k3 d10 k3, PS) | 41%
CTACTTAGCTGTGGTT (sugars k3 d10 k3, PS) | 33%
CTAGACAGACCTAAGG (sugars k3 d10 k3, PS) | 2%
CTAGGATCCTCTACGC (sugars k3 d10 k3, PS) | 11%
CTATAAGGACAGCTAA (sugars k3 d10 k3, PS) | 4%
CTATAGTCTGAAGAAT (sugars k3 d10 k3, PS) | 22%
CTATCTGAAACTCTTG (sugars k3 d10 k3, PS) | 57% and 34%
CTATTCCTTTCATAGA (sugars k3 d10 k3, PS) | -11%
CTATTGTCCCATAACT (sugars k3 d10 k3, PS) | 38%
CTCAAATGCCTATCTT (sugars k3 d10 k3, PS) | 19%
CTCAATTTGGCTATCA (sugars k3 d10 k3, PS) | 60% and 80%
CTCACAAGGCAAATCG (sugars k3 d10 k3, PS) | -12%
CTCACATGCCAGTTAC (sugars k3 d10 k3, PS) | 51%
CTCATACACTCACTAG (sugars k3 d10 k3, PS) | 0%
CTCATTTATTTCGGCT (sugars k3 d10 k3, PS) | 78% and 93%
CTCCATGAAGAAGCTT (sugars k3 d10 k3, PS) | 49%
CTCCCAATTAATCTTT (sugars k3 d10 k3, PS) | 27%
CTCCCCCATTATATTA (sugars k3 d10 k3, PS) | 31%
CTCCCCGCCTGAGCCC (sugars k3 d10 k3, PS) | -23%
CTCCGAAGACACAGAG (sugars k3 d10 k3, PS) | -3%
CTCCGTGTGGTTGCCA (sugars k3 d10 k3, PS) | 24%

Sequence | target mRNA inhibition
CTCCTGACAAATTATA (sugars k3 d10 k3, PS) | 17%
CTCCTGAGATGACTGA (sugars k3 d10 k3, PS) | 39%
CTCTAACCCAGTTTGT (sugars k3 d10 k3, PS) | 36%
CTCTAAGATTGTAAGC (sugars k3 d10 k3, PS) | 16%
CTCTTCTGATAACGAA (sugars k3 d10 k3, PS) | 23%
CTGAAAACTCCCCCCC (sugars k3 d10 k3, PS) | -2%
CTGAAGTTCTCCTGAG (sugars k3 d10 k3, PS) | 38%
CTGAGAAAACAATACG (sugars k3 d10 k3, PS) | 8%
CTGCAAACTTTAGACA (sugars k3 d10 k3, PS) | 7%
CTGCACCACCAGAAAT (sugars k3 d10 k3, PS) | 20%
CTGCATCTAGGCCATC (sugars k3 d10 k3, PS) | 65% and 52%
CTGCATTTACTTGCCA (sugars k3 d10 k3, PS) | 17%
CTGCCAGGCTGGTTAT (sugars k3 d10 k3, PS) | 1%
CTGCGCTGGCTGCCTC (sugars k3 d10 k3, PS) | 30%
CTGCGGCCCCCCAGTT (sugars k3 d10 k3, PS) | 25%
CTGCTACCTTCATCAC (sugars k3 d10 k3, PS) | 39%
CTGGAATGGCCAGCCT (sugars k3 d10 k3, PS) | 15%
CTGGATAAGTATTATA (sugars k3 d10 k3, PS) | 28%
CTGGCATGAGTTTATC (sugars k3 d10 k3, PS) | 27%
CTGGTTATGACTCAGA (sugars k3 d10 k3, PS) | 1%
CTGTCTAAGAGGTTAT (sugars k3 d10 k3, PS) | 7%
CTGTTAACAGCTGCCT (sugars k3 d10 k3, PS) | 52%
CTGTTACACCTTGAGT (sugars k3 d10 k3, PS) | 33%

Sequence | target mRNA inhibition
CTGTTATGTTCACCTG (sugars k3 d10 k3, PS) | 56% and 77%
CTTAACAGCTTATGGA (sugars k3 d10 k3, PS) | 30%
CTTACTGGGTCTGGCT (sugars k3 d10 k3, PS) | 41%
CTTACTTGATAATACA (sugars k3 d10 k3, PS) | 35%
CTTAGTAACCTATTGA (sugars k3 d10 k3, PS) | 34%
CTTATCAATTCACCAA (sugars k3 d10 k3, PS) | 47%
CTTCACCAAATCGCAC (sugars k3 d10 k3, PS) | -13%
CTTCAGACAAGATTCA (sugars k3 d10 k3, PS) | 24%
CTTCAGGCGAGCTGAG (sugars k3 d10 k3, PS) | -4%
CTTCCCTATATAAGGT (sugars k3 d10 k3, PS) | 10%
CTTCCGCCGCCTCTTA (sugars k3 d10 k3, PS) | 9%
CTTCGCCTTCCCGTAC (sugars k3 d10 k3, PS) | 35%
CTTCTAAGTTTGTACA (sugars k3 d10 k3, PS) | 47%
CTTCTGGAAAAGCTAG (sugars k3 d10 k3, PS) | 8%
CTTGAATGCAAACTAC (sugars k3 d10 k3, PS) | -6%
CTTGACAAGCAATTAA (sugars k3 d10 k3, PS) | 30%
CTTTAGGATTCTAGAC (sugars k3 d10 k3, PS) | 7%
CTTTTTAAAAGATCGC (sugars k3 d10 k3, PS) | 31%
GAAAACTCCCCCCCGC (sugars k3 d10 k3, PS) | -4%
GAAAAGTGGTTGCCCG (sugars k3 d10 k3, PS) | 32%
GAAAGATTTGAGCTGC (sugars k3 d10 k3, PS) | -10%
GAAAGTCCTTCACATT (sugars k3 d10 k3, PS) | 22%
GAAAGTGCTCACAAGG (sugars k3 d10 k3, PS) | 6%

Sequence | target mRNA inhibition
GAAATCGGAGCAGCAC (sugars k3 d10 k3, PS) | 1%
GAAATCTATTCAATAC (sugars k3 d10 k3, PS) | 24%
GAACCCCGTCCTGGAA (sugars k3 d10 k3, PS) | -18%
GAACTAGCACCTGCAG (sugars k3 d10 k3, PS) | 4%
GAACTATCACAATTCT (sugars k3 d10 k3, PS) | 3%
GAAGTGTACTATCCCA (sugars k3 d10 k3, PS) | 72% and 93%
GAATACTCTTCCAAGG (sugars k3 d10 k3, PS) | 16%
GAATCCCCCCCAAGAT (sugars k3 d10 k3, PS) | -15%
GAATCCTGTCTGCTGC (sugars k3 d10 k3, PS) | 33%
GAATTCAACTGGAAGC (sugars k3 d10 k3, PS) | 7%
GACAAGATTCATGAGT (sugars k3 d10 k3, PS) | 47%
GACAGATTAGTAGTCA (sugars k3 d10 k3, PS) | -12%
GACATTCAAGCTGAAC (sugars k3 d10 k3, PS) | 53%
GACCAACCCCCAGTTC (sugars k3 d10 k3, PS) | 3%
GACCAACTAAGCGAAT (sugars k3 d10 k3, PS) | 39%
GAGAAACCTACAACAC (sugars k3 d10 k3, PS) | 11%
GAGAACAACTCGCATC (sugars k3 d10 k3, PS) | 20%
GAGAACTGCTCTAGTT (sugars k3 d10 k3, PS) | 34%
GAGCCAAGCACTCATA (sugars k3 d10 k3, PS) | 6%
GAGGCAAACGAAACAT (sugars k3 d10 k3, PS) | 1%
GAGTAACTACCAGCCA (sugars k3 d10 k3, PS) | 37%
GAGTATAAGCCTGAAA (sugars k3 d10 k3, PS) | 16%
GATAAAAGCAGCTCCA (sugars k3 d10 k3, PS) | 30%

Sequence | target mRNA inhibition
GATAACGAAGAGATAC (sugars k3 d10 k3, PS) | 19%
GATATTGTGCTGTTAC (sugars k3 d10 k3, PS) | -17%
GATCGCCTTCAAATTA (sugars k3 d10 k3, PS) | 39%
GATGCTAGCTTGGCCA (sugars k3 d10 k3, PS) | -2%
GATGGACATTGCCTCT (sugars k3 d10 k3, PS) | 37%
GATTATCCTGATATTG (sugars k3 d10 k3, PS) | 4%
GATTCACTGAATCCAC (sugars k3 d10 k3, PS) | 8%
GATTCCGTAACTTTAA (sugars k3 d10 k3, PS) | 69% and 90%
GATTCTAACAGCACAT (sugars k3 d10 k3, PS) | 31%
GCACAGCGGTACACTC (sugars k3 d10 k3, PS) | 9%
GCAGATAATGTTCTCA (sugars k3 d10 k3, PS) | 73% and 95%
GCAGGCAAATTAATGG (sugars k3 d10 k3, PS) | 45%
GCAGGCTATTACCTGA (sugars k3 d10 k3, PS) | 19%
GCATACCTTAACATCT (sugars k3 d10 k3, PS) | 54% and 44%
GCATTACAGTTCTTGA (sugars k3 d10 k3, PS) | 72% and 75%
GCATTGCCCTTCTATT (sugars k3 d10 k3, PS) | 70% and 46%
GCATTTCCCATAATTG (sugars k3 d10 k3, PS) | 46%
GCCAACACAGTTTGCT (sugars k3 d10 k3, PS) | 30%
GCCAAGCACTCATATG (sugars k3 d10 k3, PS) | 24%
GCCATGGAAAGCGAGT (sugars k3 d10 k3, PS) | 9%
GCCCACAGGAACAAGT (sugars k3 d10 k3, PS) | 25%
GCCCCAACACTGAACT (sugars k3 d10 k3, PS) | 11%

— the OligoGym collection
